Laboratory results: patent US20100173914A1, “PHARMACEUTICALS, COMPOSITIONS AND METHODS OF MAKING AND USING THE SAME” (priority 2007, published 2010)

Assays:
[1] = biological target: T1, human adenosine A1 receptors (Homo sapiens, UniProt P30542); assay: Adenosine receptor binding: binding affinities at hA1 receptors ([3H]DPCPX displacement); details: displacement of [3H]DPCPX, membranes of CHO-K1 cells transfected with human A1
T1 construct: expressed in transfected cells; host or cells: CHO-K1
T1 sequence (P30542 1-326): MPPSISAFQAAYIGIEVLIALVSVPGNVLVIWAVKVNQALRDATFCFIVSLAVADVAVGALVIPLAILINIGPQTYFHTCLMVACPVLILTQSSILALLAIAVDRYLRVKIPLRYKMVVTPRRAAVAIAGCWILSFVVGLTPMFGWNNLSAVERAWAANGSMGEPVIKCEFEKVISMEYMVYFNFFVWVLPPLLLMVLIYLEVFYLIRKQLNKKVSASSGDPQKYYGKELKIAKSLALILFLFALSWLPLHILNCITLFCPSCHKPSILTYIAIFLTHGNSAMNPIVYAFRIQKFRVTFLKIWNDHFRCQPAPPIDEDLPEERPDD
Text: Adenosine Receptor Binding: Binding Affinities at hA1 Receptors
The compounds were examined in an assay measuring in vitro binding to human adenosine A1 receptors by determining the displacement of the adenosine A1 receptor selective radioligand 8-Cyclopentyl-1,3-dipropylxanthine ([^3H]DPCPX) using standard techniques. See, for example, Lohse M J, et al., (1987), 8-Cyclopentyl-1,3-dipropylxanthine (DPCPX)—a selective high affinity antagonist radioligand for A1 adenosine receptors. Naunyn Schmiedebergs Arch Pharmacol., 336(2):204-10, which is incorporated by reference in its entirety.
Frozen CHO-K1 cells (transfected with a human adenosine A1 recepter expression vector) were homogenized in 130 mL of 50 mM Tris HCl buffer (pH 7.5) containing 10 mM MgCl2, and 0.1 IU/mL adenosine deaminase per pellet using a Ultra-Turrax homogeniser. The resultant homogenate was kept for immediate use in the binding. Binding assays were performed in a total volume of 250 μL, containing [^3H]-DPCPX (3.0 nM), membranes and additional drugs. Total binding was determined using drug dilution buffer (50 mM Tris-HCl pH:7.5, 10 mM MgCl2, 5% DMSO). Non-specific binding was determined using 300 μM N6-cyclohexyladenosine (CHA). Following incubation for 90 minutes at 21° C., assays were terminated by rapid filtration with GF/B filters (presoaked in 0.1% (w/v) polyethylenimine) using a Canberra Packard filtermate 196, washed 3 times with ice-cold Tris-HCl (pH 7.4). Filters were left to dry overnight, and Microscint-0 scintillation fluid was then added to the filters. The filters were then left for at least 2 hours before the radioactivity was assessed using a Canberra Packard TopCount microplate scintillation counter.
To determine the free ligand concentration, three vials were counted with 25 μL of [^3H]DPCPX containing 4 mL of Ultima-Gold MV scintillant on a Beckman LS6500 multi-purpose scintillation counter.
(§1) Data was analysed using a 4 parameter logistical equation and non-linear regression which yields affinity constants (pIC50), and slope parameters:
where E is the quantity of binding and [A] is the competitor concentration. The K, is then determined using the Cheng-Prusoff equation: […]

[2] = biological target: T2, human adenosine A2A receptors (Homo sapiens, UniProt P29274); assay: Adenosine receptor binding: binding affinities at hA2A receptors ([3H]CGS-21680 displacement); details: for Ki: displacement of [3H]CGS-21680, HEK-293 cell membranes; for A2A/A1 selectivity ratio (Ki A2A/Ki A1): ratio of measured Ki values at hA2A and hA1
T2 construct: host or cells: HEK-293
T2 sequence (P29274 whole entry): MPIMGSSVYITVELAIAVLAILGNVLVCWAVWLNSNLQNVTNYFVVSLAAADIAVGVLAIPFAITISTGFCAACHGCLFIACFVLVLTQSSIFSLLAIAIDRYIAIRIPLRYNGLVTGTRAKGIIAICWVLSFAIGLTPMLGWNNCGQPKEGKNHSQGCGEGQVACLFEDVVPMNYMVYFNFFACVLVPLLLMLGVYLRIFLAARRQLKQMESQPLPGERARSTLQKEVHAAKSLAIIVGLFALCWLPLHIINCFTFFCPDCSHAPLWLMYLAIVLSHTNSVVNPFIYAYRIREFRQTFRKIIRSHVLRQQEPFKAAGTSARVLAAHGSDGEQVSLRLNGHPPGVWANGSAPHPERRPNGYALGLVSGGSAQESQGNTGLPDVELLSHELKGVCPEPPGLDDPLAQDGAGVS
Text: Adenosine Receptor Binding: Binding Affinities at hA2A Receptors
The compounds were examined in an assay measuring in vitro binding to human adenosine A2A receptors by determining the displacement of the adenosine A2A receptor selective radioligand 4-[2-[[6-Amino-9-(N-ethyl-β-D-ribofuranuronamidosyl)-9H-purin-2-yl]amino]ethyl]benzenepropanoic acid hydrochloride ([^3H]CGS-21680) using standard techniques. See, for example, Jarvis et al., J Pharmacol Exp Ther., 251(3):888-93, which is incorporated by reference in its entirety.
Frozen HEK-293 cells were homogenized in 65 mL of 50 mM Tris HCl buffer (pH 7.5) containing 10 mM MgCl2, and 0.1 IU/mL adenosine deaminase per pellet using a Ultra-Turrax homogenizer. The resultant homogenate was kept for immediate use in the binding assay.
Binding assays were performed in a total volume of 250 μL, containing [^3H]-CGS21680 (20.0 nM), membranes and additional drugs. Total binding was determined using drug dilution buffer (50 mM Tris-HCl pH 7.5, 10 mM MgCl2, 5% DMSO). Non-specific binding was determined using 300 μM CHA. Following incubation for 90 minutes at 21° C., assays were terminated by rapid filtration with GF/B filters (presoaked in 0.1% (w/v) polyethylenimine) using a Canberra Packard filtermate 196, washed 3 times with ice-cold Tris-HCl (pH 7.4). Filters were left to dry overnight, and Microscint-0 scintillation fluid was then added to the filters. The filters were then left for at least 2 hours before the radioactivity was assessed using a Canberra Packard TopCount microplate scintillation counter.
To determine the free ligand concentration, three vials were counted with 25 μL of [^3H]CGS21680 containing 4 mL of Ultima-Gold MV scintillant on a Beckman LS6500 multi-purpose scintillation counter.
as §1
where E is the quantity of binding and [A] is the competitor concentration. The Ki is then determined using the Cheng-Prusoff equation: […]

Row | Compound | Ki [1] [nM] | Ki [2] [nM] | A2A/A1 selectivity ratio (Ki A2A/Ki A1) [2]
1 | COc1cc(NS(=O)(=O)O)ccc1Cn1nnc2c(-c3ccc(C)o3)nc(N)nc21 | 1000 to 10000 | 100 to 1000 | H (more than 20)
2 | COc1cc(Cn2nnc3c(-c4ccc(C)o4)nc(N)nc32)ccc1NS(=O)(=O)O [4-[(5-amino-7-(5-methylfuran-2-yl)-3H-[1,2,3]triazolo[4,5-d]pyrimidin-3-yl)methyl]-2-methoxyphenylsulfamic acid] | 100 to 1000 | ≤ 100 | H (more than 20)
3 | Cc1ccc(-c2nc(N)nc3c2nnn3Cc2ccc(NS(=O)(=O)O)c(C)c2)o1 [4-[(5-amino-7-(5-methylfuran-2-yl)-3H-[1,2,3]triazolo[4,5-d]pyrimidin-3-yl)methyl]-2-methylphenylsulfamic acid] | 100 to 1000 | ≤ 100 | H (more than 20)
4 | Cc1ccc(-c2nc(N)nc3c2nnn3Cc2ccc(NS(=O)(=O)O)cc2)o1 [4-[(5-amino-7-(5-methylfuran-2-yl)-3H-[1,2,3]triazolo[4,5-d]pyrimidin-3-yl)methyl]phenylsulfamic acid] | 1000 to 10000 | ≤ 100 | H (more than 20)
5 | COc1cc(Cn2nnc3c(-c4ccco4)nc(N)nc32)ccc1NS(=O)(=O)O [4-[(5-amino-7-(furan-2-yl)-3H-[1,2,3]triazolo[4,5-d]pyrimidin-3-yl)methyl]-2-methoxyphenylsulfamic acid] | > 10000 | 1000 to 10000 | G (10 to 20)
6 | Cc1cc(Cn2nnc3c(-c4ccco4)nc(N)nc32)ccc1NS(=O)(=O)O [4-[(5-amino-7-(furan-2-yl)-3H-[1,2,3]triazolo[4,5-d]pyrimidin-3-yl)methyl]-2-methylphenylsulfamic acid] | 100 to 1000 | ≤ 100 | H (more than 20)
7 | COc1cc(NS(=O)(=O)O)ccc1Cn1nnc2c(-c3ccco3)nc(N)nc21 [4-[(5-amino-7-(furan-2-yl)-3H-[1,2,3]triazolo[4,5-d]pyrimidin-3-yl)methyl]-3-methoxyphenylsulfamic acid] | > 10000 | 100 to 1000 | G (10 to 20)
8 | COc1cc(Cn2nnc3c(-c4cccs4)nc(N)nc32)ccc1NS(=O)(=O)O [4-[(5-amino-7-(thiophen-2-yl)-3H-[1,2,3]triazolo[4,5-d]pyrimidin-3-yl)methyl]-2-methoxyphenylsulfamic acid] | 1000 to 10000 | 100 to 1000 | H (more than 20)
9 | COc1cc(NS(=O)(=O)O)ccc1Cn1nnc2c(-c3cccs3)nc(N)nc21 [4-[(5-amino-7-(thiophen-2-yl)-3H-[1,2,3]triazolo[4,5-d]pyrimidin-3-yl)methyl]-3-methoxyphenylsulfamic acid] | > 10000 | 1000 to 10000 | F (5 to 10)

The remaining lines, values ahead:

Row | Ki [1] [nM] | Ki [2] [nM] | A2A/A1 selectivity ratio (Ki A2A/Ki A1) [2] | Compound
10 | 1000 to 10000 | 1000 to 10000 | E (less than 5) | COc1ccccc1-c1nc(N)nc2c1nnn2Cc1cccc(NS(=O)(=O)O)c1 [3-[(5-amino-7-(2-methoxyphenyl)-3H-[1,2,3]triazolo[4,5-d]pyrimidin-3-yl)methyl]-phenylsulfamic acid]
11 | 100 to 1000 | ≤ 100 | H (more than 20) | Cc1ccc(-c2nc(N)nc3c2nnn3Cc2cccc(NS(=O)(=O)O)c2)o1 [3-[(5-amino-7-(5-methylfuran-2-yl)-3H-[1,2,3]triazolo[4,5-d]pyrimidin-3-yl)methyl]phenylsulfamic acid]
12 | 1000 to 10000 | 100 to 1000 | H (more than 20) | Nc1nc(-c2ccco2)c2nnn(Cc3cccc(NS(=O)(=O)O)c3)c2n1 [3-[(5-amino-7-(furan-2-yl)-3H-[1,2,3]triazolo[4,5-d]pyrimidin-3-yl)methyl]-phenylsulfamic acid]
13 | 1000 to 10000 | 100 to 1000 | G (10 to 20) | Nc1nc(-c2cccs2)c2nnn(Cc3cccc(NS(=O)(=O)O)c3)c2n1 [3-[(5-amino-7-(thiophen-2-yl)-3H-[1,2,3]triazolo[4,5-d]pyrimidin-3-yl)methyl]-phenylsulfamic acid]
14 | 1000 to 10000 | ≤ 100 | G (10 to 20) | Nc1nc(-c2ccccc2)c2nnn(Cc3cccc(NS(=O)(=O)O)c3)c2n1 [3-[(5-amino-7-phenyl-3H-[1,2,3]triazolo[4,5-d]pyrimidin-3-yl)methyl]-phenylsulfamic acid]
15 | > 10000 | > 10000 | E (less than 5) | COc1cc(Cn2nnc3c(-c4ccccc4OC)nc(N)nc32)ccc1NS(=O)(=O)O [4-[(5-amino-7-(2-methoxyphenyl)-3H-[1,2,3]triazolo[4,5-d]pyrimidin-3-yl)methyl]-2-methoxyphenylsulfamic acid]
16 | > 10000 | 1000 to 10000 | E (less than 5) | COc1ccccc1-c1nc(N)nc2c1nnn2Cc1ccc(NS(=O)(=O)O)c(C)c1 [4-[(5-amino-7-(2-methoxyphenyl)-3H-[1,2,3]triazolo[4,5-d]pyrimidin-3-yl)methyl]-2-methylphenylsulfamic acid]
17 | > 10000 | 1000 to 10000 | E (less than 5) | COc1cc(NS(=O)(=O)O)ccc1Cn1nnc2c(-c3ccccc3OC)nc(N)nc21 [4-[(5-amino-7-(2-methoxyphenyl)-3H-[1,2,3]triazolo[4,5-d]pyrimidin-3-yl)methyl]-3-methoxyphenylsulfamic acid]
18 | > 10000 | 1000 to 10000 | E (less than 5) | COc1ccccc1-c1nc(N)nc2c1nnn2Cc1ccc(NS(=O)(=O)O)cc1 [4-[(5-amino-7-(2-methoxyphenyl)-3H-[1,2,3]triazolo[4,5-d]pyrimidin-3-yl)methyl]phenylsulfamic acid]
19 | 1000 to 10000 | ≤ 100 | H (more than 20) | Nc1nc(-c2ccco2)c2nnn(Cc3ccc(NS(=O)(=O)O)cc3)c2n1 [4-[(5-amino-7-(furan-2-yl)-3H-[1,2,3]triazolo[4,5-d]pyrimidin-3-yl)methyl]phenylsulfamic acid]
20 | 1000 to 10000 | 100 to 1000 | G (10 to 20) | Nc1nc(-c2ccccc2)c2nnn(Cc3ccc(NS(=O)(=O)O)cc3)c2n1 [4-[(5-amino-7-(phenyl,2,3]triazolo[4,5-d]pyrimidin-3-yl)methyl]phenylsulfamic acid]
21 | 100 to 1000 | ≤ 100 | H (more than 20) | Cc1cc(Cn2nnc3c(-c4cccs4)nc(N)nc32)ccc1NS(=O)(=O)O [4-[(5-amino-7-(thiophen-2-yl)-3H-[1,2,3]triazolo[4,5-d]pyrimidin-3-yl)methyl]-2-methylphenylsulfamic acid]
